{"source": "patent US20220249413A1", "about": "“SWELL 1 MODULATORS FOR TREATMENT OF NON-ALCOHOLIC FATTY LIVER DISEASE, IMMUNE DEFICIENCIES, MALE INFERTILITY AND VASCULAR DISEASES” (priority 2019, published 2022)", "key": {"[1]": {"experiment": "NAFLD assessment: liver weight, histology, triglycerides, NAS in HFD mice", "format": "in vivo, mouse", "conditions": "HFD mice treated chronically and intermittently over 21 weeks", "method": "Liver isolation, triglycerides and histology HFD mice treated with either vehicle or Smod1 were anesthesized with […] followed by cervical dislocation. Gross liver weights were measured and identical sections from right medial lobe of liver were dissected for further examinations. Total triglyceride content was determined by homogenizing 10-50 mg of tissue in 1.5 ml of chloroform:methanol (2:1 v/v) and centrifuged at 12000 rpm for 10 mins at 4° C. An aliquot, 20 ul, was evaporated in a 1.5 ml microcentrifuge tube for 30 mins. Triglyceride content was determined by adding 100 μl of Infinity Triglyceride Reagent (Fisher Scientific) to the dried sample followed by 30 min incubation at RT. The samples were then transferred to a 96 well plate along with standards (0-2000 mg/dl) and absorbance was measured at 540 nm and the final concentration was determined by normalizing to tissue weight. For histological examination, liver sections were fixed in 10% zinc formalin and paraffin embedded for sectioning. Haematoxylin and eosin (H&E) stained sections were then assessed for steatosis grade, lobular inflammation and hepatocyte ballooning for non-alcoholic fatty liver disease (NAFLD) scoring as described (Kleiner et al., Hepatology, 41, 1313-1321, 2005; Liang et al., PLoS One, 9, e115922, 2014; Rauckhorst et al., Mol Metab, 6, 1468-1479, 2017)."}, "VRAC/ICl,SWELL": {"biological_target": "T1, VRAC/ICl,SWELL (Homo sapiens, UniProt Q8IWT6)", "T1 sequence (Q8IWT6 1-810)": "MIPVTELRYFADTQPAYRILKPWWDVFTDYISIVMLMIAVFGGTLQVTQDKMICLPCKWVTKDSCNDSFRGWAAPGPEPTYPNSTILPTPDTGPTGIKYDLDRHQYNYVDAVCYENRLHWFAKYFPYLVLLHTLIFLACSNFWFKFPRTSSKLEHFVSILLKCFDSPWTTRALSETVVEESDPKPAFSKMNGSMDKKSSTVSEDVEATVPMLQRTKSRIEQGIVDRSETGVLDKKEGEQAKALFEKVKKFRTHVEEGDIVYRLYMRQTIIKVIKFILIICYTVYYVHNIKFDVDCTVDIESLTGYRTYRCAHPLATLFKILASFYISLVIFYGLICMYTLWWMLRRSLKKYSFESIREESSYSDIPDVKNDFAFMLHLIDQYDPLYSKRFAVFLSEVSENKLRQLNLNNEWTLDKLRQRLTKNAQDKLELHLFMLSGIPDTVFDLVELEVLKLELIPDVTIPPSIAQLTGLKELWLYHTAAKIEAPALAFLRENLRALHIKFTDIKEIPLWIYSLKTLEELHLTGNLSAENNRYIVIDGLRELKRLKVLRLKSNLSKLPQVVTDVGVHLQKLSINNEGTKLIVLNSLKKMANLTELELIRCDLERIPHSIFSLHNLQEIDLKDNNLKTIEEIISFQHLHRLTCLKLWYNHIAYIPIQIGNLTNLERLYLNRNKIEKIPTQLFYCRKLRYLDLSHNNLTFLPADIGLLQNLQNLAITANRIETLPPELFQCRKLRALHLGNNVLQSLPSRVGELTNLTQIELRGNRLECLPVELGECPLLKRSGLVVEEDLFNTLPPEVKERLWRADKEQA", "conditions": "read-out: IC50 as VRAC/ICl,SWELL inhibitor; cited from earlier work"}}}
{"smiles": "CCCCC1(C2CCCC2)Cc2cc(OCCCC(=O)O)c(Cl)c(Cl)c2C1=O", "note": "(centres unmarked) [Smod1, 4-[(2-Butyl-6,7-dichloro-2-cyclopentyl-2,3-dihydro-1-oxo-1H-inden-5-yl)oxy]butanoic acid]", "values": [{"measurement": "hepatic steatosis on histology", "setting": "[1]", "result": "marked reduction"}, {"measurement": "liver triglycerides", "setting": "[1]", "result": "marked reduction"}, {"measurement": "liver weights", "setting": "[1]; 5 mg/kg i.p.", "result": "marked reduction"}, {"measurement": "NAFLD activity score (NAS)", "setting": "[1]; vs vehicle", "result": "significantly improved"}, {"measurement": "IC50", "setting": "VRAC/ICl,SWELL", "result": "2 to 4", "unit": "µM"}]}
